Values belong to the substance of their own block, whether it stands above or below them.
Columns and labels:
[1] = In vitro toxicity test (fluorimetric DNA assay, Hoechst); assay type: cell-based, human; details: human, IMR-32 neuroblastoma cells, read-out: % survival; for viability at 24 h, 2500 µg/mL / viability at 48 h, 2500 µg/mL / viability at 72 h, 2500 µg/mL: 2.5 mg/ml; for viability at 24 h, 2500 µg/mL / viability at 48 h, 2500 µg/mL / viability at 72 h, 2500 µg/mL / viability at 24 h, 10000 µg/mL / viability at 48 h, 10000 µg/mL / viability at 72 h, 10000 µg/mL: with pinocytic endocytosis reagent; for viability at 24 h, 10000 µg/mL / viability at 48 h, 10000 µg/mL / viability at 72 h, 10000 µg/mL: 10 mg/ml
Experimental: (§1) In vitro cytotoxicity testing of the peptides PRE 3, PRE 4 and PRE 5 (see Table 3) was conducted following the general protocol outlined below (modified from “Fluorimetric DNA assay for cell growth estimation” Rao J, Otto W., Analytical Biochem. 207:186-192, 1992).
(§2) The assay was performed in 96 well plates, with 3,000 IMR-32 neuroblastoma cells seeded per well and 8 replicas were performed per treatment. The cells were pre-treated with either plain medium and a pinocytic endocytosis reagent (Molecular Probes) or medium containing the PRE under evaluation and the pinocytic endocytosis reagent. The cells were allowed to grow under conventional conditions for 3 days. The DNA content of each well was assessed at 24, 48 and 72 hours using Hoechst reagent according to standard procedures. The fluorescence intensity per well was measured using the plate reader “CytoFluor 2350” from Millipore. Excitation was 360 nm and emission was 460 nm. The number of cells is directly correlated to the DNA content.
(§3) The results are shown in Tables 11-13 as the average relative fluorescence intensity measured for the 8 replica wells, as well as the percentage of survival as compared with matching untreated controls.

[2] = tested on: IMR-32 neuroblastoma cells; experiment: as above; assay type: cell-based, human
Experimental: as §1, §2, §3

PKC-ι = biological target: T1, PKC-ι (Homo sapiens, UniProt P41743); experiment: Competitive binding assay using cell extracts (Western blot); parameters: key: —: no detectable affinity; Low to very low affinity at 10X or 20X or both PRE concentrations in at least one cell line in the cell extract assay; Low affinity in purified isoform assay.; Moderate affinity at 10X or 20X or both PRE concentrations in at least one cell line in the cell extract assay.; High affinity at 10X or 20X or both PRE concentrations in at least one cell line in the cell extract assay; High affinity in purified isoform assay; details: Cell extract; PRE at 10X, 20X antibody concentration; Table 20
T1 construct: cytoplasmic extracts from different cell lines expressing appropriate PKC isoforms; endogenous in cells; host or cells: MDAMB231, LnCAP, H661, CCD16Lu, Du145, LS180 (human, from ATCC)
T1 sequence (P41743 1-596): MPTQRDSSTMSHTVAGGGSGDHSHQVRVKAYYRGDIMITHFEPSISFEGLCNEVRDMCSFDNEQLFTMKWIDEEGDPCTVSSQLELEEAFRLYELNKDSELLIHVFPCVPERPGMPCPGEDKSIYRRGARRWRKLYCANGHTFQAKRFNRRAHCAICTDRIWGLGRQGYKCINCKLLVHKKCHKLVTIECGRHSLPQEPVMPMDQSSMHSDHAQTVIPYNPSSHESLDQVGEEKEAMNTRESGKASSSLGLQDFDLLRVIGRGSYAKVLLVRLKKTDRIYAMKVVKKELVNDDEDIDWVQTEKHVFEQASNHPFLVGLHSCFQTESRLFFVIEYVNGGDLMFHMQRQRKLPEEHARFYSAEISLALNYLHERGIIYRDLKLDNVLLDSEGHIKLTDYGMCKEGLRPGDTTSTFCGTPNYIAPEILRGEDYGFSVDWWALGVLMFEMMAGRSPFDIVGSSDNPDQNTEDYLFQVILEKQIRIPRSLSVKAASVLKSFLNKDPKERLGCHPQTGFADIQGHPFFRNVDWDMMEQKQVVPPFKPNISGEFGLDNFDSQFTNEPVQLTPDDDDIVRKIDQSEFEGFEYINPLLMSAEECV
Experimental: (§4) Binding efficiency and specificity of the peptides PRE 2, 3, 4, 5, 6, 7, 8, 9, 10, 11, 12 and 13 (see Table 3) was also tested using cytoplasmic extracts from different cell lines expressing appropriate PKC isoforms as described for Example 1. Briefly, the protein cytoplasmic extracts were separated by electrophoresis and transferred onto nitrocellulose membranes by standard Western blotting procedures. The bands on the Western blots were detected with matching primary antibodies and alkaline phosphatase conjugated secondary antibody. The bands were then scanned and the relative density measurements obtained.
(§5) This procedure to assess the binding characteristics of the PREs is based on competition binding of the PRE with the primary anti-isoform PKC specific antibodies. The lower the measured band density, the greater the binding of the PRE to the PKC isoform. The PREs were added at 10 and 20 times (10×, 20×) the primary antibody concentration, according to classical competition between antigenic peptide and primary antibody. The following cell lines (obtained from the ATCC) were used: H661—NCI human lung carcinoma NSCLC; MDAMB231—human highly invasive breast cancer cell line from pleural effusion; LS180—human colon adenocarcinoma; LnCAP—human prostate adenocarcinoma; CCD16Lu—human lung fibroblasts; Du145—human prostate carcinoma brain metastasis, and T24—human bladder carcinoma.
(§6) In these cases, the 20× band density figures relative to control and 10× values were reliable.

PKC-α = experiment: Binding of PREs to PKC-α in V5E-transfected IMR-32 cells and effect on cell morphology; assay type: cell-based, human; details: V5E-transfected IMR-32 cells; for Relative Fluorescence Intensity (mean): PRE by pinocytic endocytosis, transfected + reagent control 113
Description: Neuroblastoma cells from the IMR-32 cell line were stably transfected with a vector containing the V5E sequence of PKC-α as outlined above in Example 13. The V5E sequence is part of the antigenic amino acid sequence that is used to raise the commercially available anti-PKC-α isoform-specific antibody.
The peptides PRE 1, 2, 3, 4, 5, 6, 7, 8, 9, 10, 11, 12 and 13 (see Table 3) were incorporated into the transfected IMR-32 cells via pinocytic endocytosis (Molecular Probes) according to the supplier's recommendations. Following fixation and permeabilization, PKC-α was detected using an Alexa fluor secondary antibody (as described above in Example 8).
Results: The expressed V5E fragment adds to the decoration of PKC-α in the transfected IMR-32 cells since it is recognized by the same antibody (compare FIGS. 20A and 20B).

PKC-βII = experiment: Competitive binding assay using cell extracts (Western blot); parameters: species or system human; key: —: no detectable affinity; Low to very low affinity at 10X or 20X or both PRE concentrations in at least one cell line in the cell extract assay; Low affinity in purified isoform assay.; Moderate affinity at 10X or 20X or both PRE concentrations in at least one cell line in the cell extract assay.; High affinity at 10X or 20X or both PRE concentrations in at least one cell line in the cell extract assay; High affinity in purified isoform assay; details: Cell extract; PRE at 10X, 20X antibody concentration; Table 20
Experimental: as §4, §5, §6

[3] = 2.5 mg/ml, 24 h, with pinocytic endocytosis reagent
[4] = 2.5 mg/ml, 48 h, with pinocytic endocytosis reagent
[5] = 2.5 mg/ml, 72 h, with pinocytic endocytosis reagent
[6] = 10 mg/ml, 24 h, with pinocytic endocytosis reagent
[7] = 10 mg/ml, 48 h, with pinocytic endocytosis reagent
[8] = 10 mg/ml, 72 h, with pinocytic endocytosis reagent

Affinity for PKC isoform ι (PKC-ι): L
Substance: Ac-AKGIQEVKGGDAQNLIGISI-NH2 [PRE 3]
viability at 24 h, 2500 µg/mL ([1]; 24 h): 127% | viability at 48 h, 2500 µg/mL ([1]; 48 h): 150% | viability at 72 h, 2500 µg/mL ([1]; 72 h): 123% | viability at 24 h, 10000 µg/mL ([1]; 24 h): 120% | viability at 48 h, 10000 µg/mL ([1]; 48 h): 129% | viability at 72 h, 10000 µg/mL ([1]; 72 h): 117% | AFI (Average fluorescence intensity) [2, 3]: 193 | AFI (Average fluorescence intensity) [2, 4]: 389 | AFI (Average fluorescence intensity) [2, 5]: 871 | AFI (Average fluorescence intensity) [2, 6]: 182 | AFI (Average fluorescence intensity) [2, 7]: 334 | AFI (Average fluorescence intensity) [2, 8]: 830 | PKC-α label (PKC-α): more intense perinuclear decoration | Relative Fluorescence Intensity (mean) (PKC-α): 83 | Affinity for PKC isoform βII (PKC-βII): L

Substance: Ac-AKGIQEVKGGKDAQNLIGISI-NH2 [PRE 5]
viability at 24 h, 62.5 µg/mL ([1]; 62.5 μg/ml, 24 h, Table 13): 113% | viability at 48 h, 62.5 µg/mL ([1]; 62.5 μg/ml, 48 h, Table 13): 117% | viability at 72 h, 62.5 µg/mL ([1]; 62.5 μg/ml, 72 h, Table 13): 100% | viability at 24 h, 125 µg/mL ([1]; 125 μg/ml, 24 h, Table 13): 94% | viability at 48 h, 125 µg/mL ([1]; 125 μg/ml, 48 h, Table 13): 107% | viability at 72 h, 125 µg/mL ([1]; 125 μg/ml, 72 h, Table 13): 93% | viability at 24 h, 250 µg/mL ([1]; 250 μg/ml, 24 h, Table 13): 88% | viability at 48 h, 250 µg/mL ([1]; 250 μg/ml, 48 h, Table 13): 97% | viability at 72 h, 250 µg/mL ([1]; 250 μg/ml, 72 h, Table 13): 89% | viability at 24 h, 500 µg/mL ([1]; 500 μg/ml, 24 h, Table 13): 78% | viability at 48 h, 500 µg/mL ([1]; 500 μg/ml, 48 h, Table 13): 96% | viability at 72 h, 500 µg/mL ([1]; 500 μg/ml, 72 h, Table 13): 84% | AFI (Average fluorescence intensity) ([2]; 62.5 μg/ml, 24 h, 3000 cells/100 μl/well, Table 13): 717 | AFI (Average fluorescence intensity) ([2]; 62.5 μg/ml, 48 h, Table 13): 1084 | AFI (Average fluorescence intensity) ([2]; 62.5 μg/ml, 72 h, Table 13): 1290 | AFI (Average fluorescence intensity) ([2]; 125 μg/ml, 24 h, Table 13): 593 | AFI (Average fluorescence intensity) ([2]; 125 μg/ml, 48 h, Table 13): 991 | AFI (Average fluorescence intensity) ([2]; 125 μg/ml, 72 h, Table 13): 1200 | AFI (Average fluorescence intensity) ([2]; 250 μg/ml, 24 h, Table 13): 557 | AFI (Average fluorescence intensity) ([2]; 250 μg/ml, 48 h, Table 13): 899 | AFI (Average fluorescence intensity) ([2]; 250 μg/ml, 72 h, Table 13): 1150 | AFI (Average fluorescence intensity) ([2]; 500 μg/ml, 24 h, Table 13): 492 | AFI (Average fluorescence intensity) ([2]; 500 μg/ml, 48 h, Table 13): 891 | AFI (Average fluorescence intensity) ([2]; 500 μg/ml, 72 h, Table 13): 1082 | effect on cell morphology (PKC-α): poor morphology | effect on karyokinesis (PKC-α): aborted karyokinesis | Relative Fluorescence Intensity (mean) (PKC-α): 124 | Affinity for PKC isoform βII (PKC-βII): H

Substance: Ac-ISIGILNQADK-NH2 [PRE 10]
effect on karyokinesis (PKC-α): aborted karyokinesis | Affinity for PKC isoform βII (PKC-βII): —

Affinity for PKC isoform ι (PKC-ι): —
Substance: Ac-ISIGILQNADK-NH2 [PRE 7]

Affinity for PKC isoform ι (PKC-ι): —
Substance: Ac-KDANQLIGISI-NH2 [PRE 6]
effect on karyokinesis (PKC-α): aborted karyokinesis

Affinity for PKC isoform ι (PKC-ι): —
Substance: Ac-KDAQNLI-NH2 [PRE 12]
effect on cell morphology (PKC-α): little effect on the cell morphology | Affinity for PKC isoform βII (PKC-βII): L

Affinity for PKC isoform ι (PKC-ι): M/L
Substance: Ac-KDAQNLIGISI-NH2 [PRE 4, Ac-KDAQNLIGISI-NH2]
viability at 24 h, 2500 µg/mL ([1]; 24 h): 106% | viability at 48 h, 2500 µg/mL ([1]; 48 h): 99% | viability at 72 h, 2500 µg/mL ([1]; 72 h): 110% | viability at 24 h, 10000 µg/mL ([1]; 24 h): 103% | viability at 48 h, 10000 µg/mL ([1]; 48 h): 101% | viability at 72 h, 10000 µg/mL ([1]; 72 h): 115% | AFI (Average fluorescence intensity) [2, 3]: 179 | AFI (Average fluorescence intensity) [2, 4]: 240 | AFI (Average fluorescence intensity) [2, 5]: 777 | AFI (Average fluorescence intensity) [2, 6]: 173 | AFI (Average fluorescence intensity) [2, 7]: 247 | AFI (Average fluorescence intensity) [2, 8]: 809 | PKC-α label (PKC-α): decreased label | effect on cell morphology (PKC-α): morphological changes with enlarged cells | Relative Fluorescence Intensity (mean) (PKC-α): 79 | Affinity for PKC isoform βII (PKC-βII): L

Affinity for PKC isoform ι (PKC-ι): —
Substance: Ac-RDAQNLI-NH2 [PRE 13]
effect on cell morphology (PKC-α): little effect on the cell morphology | Relative Fluorescence Intensity (mean) (PKC-α): 116

Substance: Ac-RDAQNLIGISI-NH2 [PRE 11]
effect on cell morphology (PKC-α): apoptotis

Substance: Ac-isigilgnadk-NH2 [PRE 9]
PKC-α label (PKC-α): strong perinuclear label | Relative Fluorescence Intensity (mean) (PKC-α): 121 | Affinity for PKC isoform βII (PKC-βII): —

Substance: ILEDKGGDAQNLIGISI [PRE 8]
Affinity for PKC isoform βII (PKC-βII): H

Affinity for PKC isoform ι (PKC-ι): —
Substance: RRKKGGKDFVVKR [PRE 1]
effect on cell morphology (PKC-α): many dividing cells and abnormal morphology

— US20100041597A1, “PEPTIDES TARGETED TO PROTEIN KINASE C ISOFORMS AND USES THEREOF” (priority 2005, published 2010)
